Where two headings read alike, the source gives them in different places.
Key:
[1] = system: HEK-293 cells; test: Anti-proliferative activity in vitro; type: cell-based; conditions: 72 hour incubation, LDH assay
Procedure: Materials and Methods: HEK-293 (CRL-1573) cells were obtained from ATCC and cultured according to ATCC instructions. Complete growth medium consisted of RPMI 1640 supplemented to 10% with fetal bovine serum (FBS). All cell incubations were at 37° C. in 95% air: 5% CO2. Two days before the start of a proliferation experiment, 10^3 HEK-293 cells in exponential growth phase were plated into each well of a 96-well plate. To synchronize cell division, the cells were maintained in complete growth medium for 24 hours at which time the cell monolayers were rinsed once with growth medium without FBS and then incubated overnight in media without FBS. The next morning GC4419 or GC4403 in complete growth medium or complete growth medium alone was added. The plates were incubated for 72 hour, after which time cell numbers were determined using an LDH assay kit. “Cell number” on FIG. 3 represents absorbance at 490 nm.

[2] = system: TNF-α; test: Plasma TNF-α in the collagen induced arthritis model; type: in vivo, Male Lewis rats
Procedure: Male Lewis rats (160-180 g) were used for this study. Collagen induced arthritis (CIA) was induced as follows: Bovine type II collagen (CII; Sigma) was dissolved in 0.1 M acetic acid at 2 mg/mL by stirring overnight at 4 C. Rats were immunized with an emulsion of 2 mg/mL CII in incomplete Freund's adjuvant (IFA; Sigma). The emulsion was prepared by homogenizing one part CII into one part IFA at 4 C. On day 1, rats were injected intradermally at the base of the tail with 100 μL of the emulsion. On day 21, a second injection of CII in IFA was administered at the base of the tail. GC4403 and GC4419 were prepared fresh, dissolved in 26 mM sodium bicarbonate buffered saline (Vehicle). All drugs were given by intraperitoneal injection at 1 mL/kg. Animals were randomly divided into groups (n=10 per group). GC4403 and GC4419 were administered once daily at 2, 5 and 10 mg/kg from days 25 through 35.
TNF-α levels were measured from plasma on day 35. The assay was conducted using a colorimetric ELISA kit (Calbiochem-Novabiochem) having a detection limit of 5 pg/mL. Values were expressed as mean±standard error of the mean of 10 observations. Data sets were examined by one-way ANOVA followed by a Bonferroni post-hoc test for multiple comparisons. A p-value of less than 0.05 was considered significant.

[3] = system: beagle dogs; test: GC4403 7-day IV toxicity in dog; type: in vivo; conditions: 7 days
Procedure: GC4403 in 26 mM sodium bicarbonate/0.9% sodium chloride was administered to beagle dogs (4/sex/group) IV (slow bolus injection over at least 1 minute) at dosages of 0, 1, 3 or 6 mg/kg/day for 7 days. There was no mortality during the study. […] At 6 mg/kg/day, animals also had tremors, abnormal stance and gait, inability to stand and prostration. Generally, clinical signs had resolved by two hours after dose administration. As the study progressed, some clinical signs (tremors, inability to stand, prostration and abnormal stance and gait) lessened slightly. […] The lower white cell counts correlated with lower absolute neutrophil and eosinophil counts at ≥3 mg/kg/day, which were, however, within the normal historical values for these parameters. At necropsy, there were no changes in organ weights compared to control animals nor were there macroscopic or microscopic changes in any organs with the exception of fibrosis in the heart of one male at 3 mg/kg/day and 1 male at 6 mg/kg/day.

[4] = system: Sprague-Dawley rats; test: Rat GC4403 28-day IV toxicology; type: in vivo; conditions: 28 days
Procedure: GC4403 was evaluated in a 28-day GLP study in Sprague-Dawley rats. GC4403 was administered to rats (10/sex/group) as slow-bolus IV injections at dosages of 0, 1, 3 or 6 mg/kg/day for 28 days. The control (0 dose) group received vehicle (26 mM sodium bicarbonate in normal saline). Evaluations for compound-related effects were based on clinical observations, body weight, food consumption, hematology and clinical chemistry parameters, functional observation battery, organ weights and gross and microscopic postmortem examinations. There were no compound-related changes in organ weights or macroscopic or microscopic pathology. Based on the results of this study, the NOTEL for GC4403, when administered to rats for 28 days as an IV infusion was 3 mg/kg/day.

[5] = Solubility (Table 1); type: physicochemical
[6] = Kinetic stability (dissociation of Mn(II) from ligand); type: physicochemical; conditions: second-order rate constant for dissociation of Mn(II) from the ligand, in water
[7] = Catalytic rate constant for the dismutation of superoxide; type: biochemical; conditions: pH = 7.4
[8] = system: beagle dogs; test: GC4403 28-day IV toxicity in dog; type: in vivo; conditions: 28 days
Procedure: (§1) GC4403 was evaluated in a Good Laboratory Practice (GLP)-regulated study in beagle dogs. GC4403 was administered intravenously (IV) via slow bolus dose, once daily, to beagle dogs for 28 consecutive days. GC4403 was administered IV into the cephalic vein (0.5 mL/kg) to 3 groups of dogs (4 animals/sex/group) at dosages of 1.0, 3.0 and 6.0 mg/kg with a fourth group receiving vehicle (26 mM sodium bicarbonate in normal saline). […] There were no test article-related differences in group mean hematology, coagulation, or clinical chemistry parameters or urinalysis parameters after 28 days of treatment in any dosing group. At necropsy on day 29, there were neither test-article related gross macroscopic findings nor test-article-related differences in organ weight. No test-article-related histopathological lesions were present. There were no test-article-related electrocardiology (ECG) effects when evaluated on day 27.

[9] = GC4403 28-day IV toxicity in dog; type: in vivo; conditions: both sexes, dog, in vivo; beagle dogs, IV, 28 consecutive days; read-out: no observed adverse effect level (NOAEL)
Procedure: as §1

[10] = 2 mg/kg ip once daily days 25 through 35, measured day 35
[11] = 5 mg/kg ip once daily days 25 through 35, measured day 35
[12] = 10 mg/kg ip once daily days 25 through 35, measured day 35
[13] = 26 mM bicarbonate buffered saline, aqueous buffer, at 25° C., pH 8.3, read-out: Solubility in 26 mM bicarbonate buffered saline

Compound | proliferation of HEK-293 cells [1] | plasma TNF-α production [2, 10] | plasma TNF-α production [2, 11] | plasma TNF-α production [2, 12] | mortality ([3]; dog, 1, 3 or 6 mg/kg/day IV) | no observed toxic event level (NOTEL) ([3]; dog, IV slow bolus injection) [mg/kg/day] | dosage at which clinical signs immediately after dose administration were observed ([3]; dog, IV slow bolus, scratching, facial swelling, raised red areas, partial closing of the eyes) [mg/kg/day] | NOTEL [4] [mg/kg/day] | solubility [5, 13] [mg/mL] | solubility ([5]; distilled water, water) [mg/mL] | Kinetic Stability (kdiss) [6] | Catalytic rate constant for the dismutation for superoxide (kcat) [7] | mortality ([8]; beagle dogs, 1.0, 3.0 and 6.0 mg/kg IV) | no observed toxic effect level (NOTEL) ([8]; both, beagle, dog, in vivo, iv) [mg/kg/day] | NOAEL at 28 days [9] [mg/kg/day]
[Cl][Mn-5]1234([Cl])[n+]5c6cccc5C[NH+]1[C@@H]1CCCC[C@H]1[NH+]2CC[NH+]3[C@@H]1CCCC[C@H]1[NH+]4C6 (some centres unmarked) [GC4403] | equivalent dose-dependent decrease | did not significantly reduce | significantly reduced | significantly reduced | no mortality | 3 | ≥ 3 | 3 | 20 | 30 | kdiss = 0.135 M^−1 s^−1 | kcat = 1.2 × 10^+7 M^−1 sec^−1 | No animals died | 3.0 | 1
[Cl][Mn-5]1234([Cl])[n+]5c6cccc5C[NH+]1[C@H]1CCCC[C@@H]1[NH+]2CC[NH+]3[C@H]1CCCC[C@@H]1[NH+]4C6 (some centres unmarked) [GC4419] | equivalent dose-dependent decrease | did not significantly reduce | significantly reduced | significantly reduced |  |  |  |  | 20 | 30 | kdiss = 0.135 M^−1 s^−1 | kcat = 1.2 × 10^+7 M^−1 sec^−1 |  |  | 

Source: patent US11826373B2, “Methods for treatment of diseases” (Galera Labs, LLC, priority 2011, dated 2023)
